“Also recorded” adds a separate entry of the source.
Columns and labels:
[1] = tested on: dogs with acute myocardial infarction; settings: US2004014671A1; cited from earlier work
[2] = tested on: isolated cardiomyocytes from SHAM and HF mice; assay: Cytosolic Ca2+ transients and cell shortening in isolated cardiomyocytes; type: cell-based, mouse; settings: for cardiomyocyte fractional shortening (FS): 15 min ghrelin exposure, 100 nM, sham and post-MI HF mice; for cardiomyocyte Ca2+ transients (amplitude): SHAM and HF mice, vs placebo
Excerpt: Twelve-week old C57BL6 mice were anesthetized with gas mixture of oxygen and isoflurane (2-3%). Myocardial infarction (MI) was induced in mice by permanent ligation of the left coronary artery, as previously described (Perrino et al., 2013). Briefly, mice underwent thoracotomy and subsequent left coronary ligation; ˜80% survived during the follow-up period (4-6 weeks). SHAM-operated animals underwent the same procedure without coronary artery ligation (SHAM). At study termination, after sedation, mice were euthanized through cervical dislocation.
After euthanasia, single cardiomyocytes were isolated from the left and right ventricles (mouse hearts are dominated by left ventricles) and atria were excluded, following the protocols developed by the Alliance for Cellular Signalling (AfCS Procedure Protocol ID PP00000 125) as previously described (Pironti et al., 2016).
Mouse cardiomyocytes were incubated with a cell permeable form of fluorescent indicators Fluo-3 AM followed by washing for >5 min as previously described (Andersson et al., 2011). Cardiomyocytes were plated on laminin coated glass bottom dishes. The dishes were placed in a custom built perfusion/stimulation chamber and continuously perfused with O2/CO2 (95/5%) bubbled Tyrode solution with the following composition (in mM): NaCl 121, KCl 5.0, CaCl2 1.8, MgCl2 0.5, NaH2PO4 0.4, NaHCO3 24, EDTA 0.1, glucose 5.5. The cardiomyocytes were stimulated to contract using an electrical field between two platinum electrodes attached to the perfusion/stimulation chamber. […] Fluorescence was measured using a confocal microscope Bio-Rad MRC 1024 unit attached to a Nikon Diaphot inverted microscope (40-60×oil immersion lenses). Confocal images were analyzed off line using ImageJ (National Institutes of Health; available at http://rsb.info.nih.gov/ij). Line scan confocal images were obtained from paced cardiomyocytes with the line scan running along the long axis of the cell. Changes in the emitted fluorescence, representing changes in free cytoplasmic Ca^2+, were quantified. The amplitude of Ca^2+ transients was measured as the change in the fluo-3 fluorescence signal (F) divided by the fluorescence immediately before a stimulation pulse given under control conditions (FO). Ca^2+ transient decay time constant (Tau) was quantified by fitting the decay to an exponential decay function in the GraphPad Prism software (La Jolla, Ca, USA). Fractional cell shortening was calculated from the line scan images as the fractional change in the cell length at rest and during maximal contraction.
The myocytes were superfused with physiological buffer (Tyrode solution) or for the pharmacological experiments Tyrode+Ghrelin (100 nM) or D-Lys 3 (D-Lys 3 GHS-R1a antagonist 3 μM). All cells were perfused for 15 min with respective solution before measurements, except in some experiments where D-Lys 3 (3 μM) was introduced in perfusion system 10 minutes before adding Ghrelin. All experiments were performed at room temperature (˜24° C.).
The myocytes were superfused with physiological buffer (Tyrode solution) with or without Ghrelin (Bachem, Bubendorf, Switzerland) (100 nM). All cardiomyocytes were superfused for 15 min with respective solution before measurements. An antagonist against the ghrelin receptor GHS-r1a (D-Lys 3; 3 μM), was used in some experiments. In those experiments, D-Lys 3 was introduced in superfusion system 10 minutes before adding Ghrelin.

[3] = tested on: patients with advanced CHF and reduced EF; assay: Trial echocardiography; type: in vivo, human
Protocol: Echocardiography was performed by a technician blinded to treatment allocation and all echo images were analyzed and interpreted by one independent investigator blinded to treatment allocation and clinical history of the patients. Two dimensional images were recorded with a Vivid 7/E9 ultrasound system (GE, Horten, Norway) with a 3 MHz Doppler transducer. A detailed echocardiographic examination including dimensions, cardiac systolic and diastolic function, valve performance and systolic pulmonary artery pressure was performed at baseline (Table 5). A shorter protocol including left ventricular dimensions and function, stroke volume and cardiac output was used for comparison of changes over time (Table 9 and 10). Left ventricular end-systolic and end-diastolic volumes and left ventricular ejection fraction (LVEF) were measured using the modified biplane Simpson's method. LVEF was also measured using the Teichholz method. Because of missing data on LVEF by the Simpson's method due to low image quality, changes in LVEF over time was calculated using the Teichholz method. Left atrial volumes were calculated using the biplane area length method from the apical four- and two-chamber views and indexed to the body surface area. The E/e′ ratio was calculated using the peak E-wave velocity of the mitral inflow and the averaged of septal and lateral tissue Doppler recordings. Tricuspid annular peak systolic excursion (TAPSE) was assessed with M-mode echocardiography. Speckle tracking was used for left ventricular longitudinal strain. […] Stroke volume was derived from the left ventricular outflow tract (LVOT) area and the LVOT […] time integral (VTI) (LVOT area×LVOT VTI). Cardiac output was calculated as the echo derived stroke volume×heart rate.

## CCCCCCCC(=O)OC[C@H](NC(=O)[C@H](CO)NC(=O)CN)C(=O)N[C@@H](Cc1ccccc1)C(=O)N[C@@H](CC(C)C)C(=O)N[C@@H](CO)C(=O)N1CCC[C@H]1C(=O)N[C@@H](CCC(=O)O)C(=O)N[C@@H](Cc1cnc[nH]1)C(=O)N[C@@H](CCC(N)=O)C(=O)N[C@@H](CCCNC(=N)N)C(=O)N[C@H](C(=O)N[C@@H](CCC(N)=O)C(=O)N[C@@H](CCC(N)=O)C(=O)N[C@@H](CCCNC(=N)N)C(=O)N[C@@H](CCCCN)C(=O)N[C@@H](CCC(=O)O)C(=O)N[C@@H](CO)C(=O)N[C@@H](CCCCN)C(=O)N[C@@H](CCCCN)C(=O)N1CCC[C@H]1C(=O)N1CCC[C@H]1C(=O)N[C@@H](C)C(=O)N[C@@H](CCCCN)C(=O)N[C@@H](CC(C)C)C(=O)N[C@@H](CCC(N)=O)C(=O)N1CCC[C@H]1C(=O)N[C@@H](CCCNC(=N)N)C(=O)O)C(C)C [Ghrelin]
[1]
  improvement of CO: not
[2]
  kinetics of Ca2+ transients (ROI and Tau): did not affect
  cardiomyocyte fractional shortening (FS): increases contractility
  cardiomyocyte Ca2+ transients (amplitude): did not differ
[2]; listed as ghrelin
  cardiomyocyte fractional shortening (FS): increased compared to placebo
  cardiomyocyte Ca2+ transients (amplitude): not different; also recorded: no difference
[3]; 2-5 days FU
  CO (echocardiography): 3.8 ± 1.3 L/min
  E/e′: 16.2 ± 8.3 ratio
  LVEDD: 66 ± 10 mm
  LVEF: 28.5 ± 11.9%
  LVESD: 57 ± 11 mm
  SV (echocardiography): 52.5 ± 20.6 mL
  TAPSE: 11.8 ± 6.0 mm
[3]; 2-5 days FU, n = 12
  Strain: 10.4 ± 6.4%
[3]; +30 min
  CO (echocardiography): 4.1 ± 1.5 L/min
  E/e′: 15.3 ± 6.6 ratio
  LVEDD: 65 ± 9 mm
  LVEF: 30.1 ± 11.2%
  LVESD: 56 ± 11 mm
  SV (echocardiography): 62.2 ± 23.8 mL
  TAPSE: 14.1 ± 5.4 mm
[3]; +30 min, n = 13
  Strain: 12.46 ± 4.1%
[3]; BL
  CO (echocardiography): 3.8 ± 1.5 L/min
  E/e′: 15.2 ± 5.5 ratio
  LVEDD: 66 ± 9 mm
  LVESD: 58 ± 9 mm
  SV (echocardiography): 54.3 ± 18.4 mL
  TAPSE: 13.0 ± 5.9 mm
[3]; BL, Teichholz method
  LVEF: 27.4 ± 7.4%
[3]; BL, n = 13 in ghrelin group
  Strain: 11.9 ± 6.3%
[3]; Baseline (Table 10)
  CO (echocardiography): 3.8 ± 1.5 L/min
  E/e′: 15.2 ± 5.5 ratio
  LVEDD: 66 ± 9 mm
  LVEF: 27.4 ± 7.4%
  LVESD: 58 ± 9 mm
  SV (echocardiography): 54.3 ± 18.4 mL
  TAPSE: 13.0 ± 5.9 mm
[3]; Baseline (Table 10), n = 12 in ghrelin group
  Strain: 11.9 ± 6.3%
[3]; INF + 60 min
  CO (echocardiography): 3.9 ± 1.3 L/min
  E/e′: 17.1 ± 9.5 ratio
  LVEDD: 67 ± 9 mm
  LVEF: 29.1 ± 11.5%
  LVESD: 58 ± 11 mm
  SV (echocardiography): 56.3 ± 21.4 mL
  TAPSE: 13.1 ± 4.8 mm
[3]; INF + 60 min, n = 13
  Strain: 13.4 ± 4.6%
[3]; INF + 120 min
  CO (echocardiography): 3.9 ± 1.4 L/min
  E/e′: 16.3 ± 8.9 ratio
  LVEDD: 67 ± 10 mm
  LVEF: 29.8 ± 11.4%
  LVESD: 57 ± 11 mm
  SV (echocardiography): 59.5 ± 25.5 mL
  TAPSE: 14.2 ± 5.4 mm
[3]; INF + 120 min, n = 13
  Strain: 13.2 ± 5.8%
[3]; in vivo
  change in CO by echocardiography: trends toward a difference in change of CO in favor of ghrelin; also recorded: a nominal interaction suggesting improvement with ghrelin but no significant differences in change
  change in E/e′: no differences in change; also recorded: no interaction with or differences in change
  change in EF: a trend toward a greater absolute (p=0.12) and percent change (p=0.14) in EF with ghrelin; also recorded: a nominal interaction suggesting improvement in EF with ghrelin
  change in LVEDD: no change or differences in change
  change in LVESD: no change or differences in change
  change in SV by echocardiography: a significant difference in change of SV in favor of ghrelin; also recorded: a significant interaction suggesting improvement with ghrelin
  change in TAPSE: a trend toward a greater difference in change; also recorded: a trend toward an interaction suggesting improvement in TAPSE
  segmental strain by echocardiography: numerical differences in favor of ghrelin but no statistical significance

— patent US20230346889A9, “TREATMENT OF ACUTE HEART FAILURE” (AnaCardio R&D AB, priority 2019, published 2023)
